The source of these data is patent publication US9618511B2, “Methods and compositions for treating alzheimer's disease” (Eleanore Bennett Charitable Trust #2, priority 2008, dated 2017).

“Also recorded” adds a separate entry of the source.

The test system of assay [1] is PDK-dependent activation of Akt1. The experiment in a line: In vitro PDK-dependent Akt1 phosphorylation and activity assay (immunoprecipitated PDK1 and Akt1, GSK-3 fusion protein substrate). The following applies: for effect on PDK-stimulated Akt activity / Akt phosphorylation: 10 μM; for relative effect of amyloid preparations (monomer, ADDL, fibril) on PDK-dependent Akt activation: comparison of preparations, SH-SY5Y-derived kinases. It counts as biochemical, human (SH-SY5Y, HEK293), mouse (C2C12). On the procedure: Akt1 was immunoprecipitated (IP) overnight from 100 μg of the human brain sample or from C2C12 myotubes infected with adenovirus encoding Aβ using a 1:100 dilution of goat anti-Akt1 antibody. The following morning, 40 μl of a 50% slurry of protein G-Agarose (PGA) (Roche Applied Science) was added for an additional 1.5 hours. The beads were washed twice with wash buffer [1× phosphate buffered saline (PBS), 0.5% NP-40, 0.1 mM Na3VO4] and twice with kinase buffer [25 mM Tris (pH 7.5), 2 mM DTT, 0.1 mM Na3VO4, 10 mM MgCl2]. ATP (200 μM) and GSK-3 fusion protein (1 μg/50 μl) were added in the presence of kinase buffer, and the final reaction (50 μl) was incubated 30 minutes at 30° C. The reaction was stopped by adding 40 μl of Laemmli buffer. 20 μl of sample was loaded onto a 10% polyacrylamide gel for fractionation and western detection development.
Immunoprecipitates (IPs) of PDK1 and Akt were prepared from 100 μg of either SH-SY5Y, C2C12 myotubes or from insulin-treated cultures. ATP (200 μM), GSK-3 fusion protein (1 μg/50 μl) and kinase buffer were added to the reaction. Various Aβ peptides were finally added at 0.01, 0.1, 1, 5, 10, 20 μM. Akt activity level was otherwise determined as above.

Assay [2] has as its target T1, SGK (serum/glucocorticoid regulated kinase) activated by PDK (Mus musculus, UniProt Q9Z2A0).
T1 construct: Stimulated PDK was IP from insulin-treated C2C12 myotubes; endogenous in cells; host or cells: PDK from insulin-treated C2C12 myotubes
T1 sequence (Q9Z2A0 1-559): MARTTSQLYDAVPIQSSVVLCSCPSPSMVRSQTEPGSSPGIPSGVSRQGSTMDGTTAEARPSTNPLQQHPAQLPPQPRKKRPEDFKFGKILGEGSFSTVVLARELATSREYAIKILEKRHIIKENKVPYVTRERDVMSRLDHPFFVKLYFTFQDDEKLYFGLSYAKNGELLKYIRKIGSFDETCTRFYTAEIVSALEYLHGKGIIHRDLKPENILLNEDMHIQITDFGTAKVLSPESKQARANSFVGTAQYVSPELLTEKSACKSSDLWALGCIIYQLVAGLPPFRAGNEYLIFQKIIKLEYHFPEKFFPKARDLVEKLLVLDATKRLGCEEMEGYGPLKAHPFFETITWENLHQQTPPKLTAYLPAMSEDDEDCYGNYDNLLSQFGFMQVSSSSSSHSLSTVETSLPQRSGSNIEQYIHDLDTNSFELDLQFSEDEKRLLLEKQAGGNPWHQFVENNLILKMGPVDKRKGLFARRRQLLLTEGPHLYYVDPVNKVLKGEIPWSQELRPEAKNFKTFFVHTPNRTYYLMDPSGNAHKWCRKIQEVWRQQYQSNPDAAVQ
The experiment in a line: PDK-stimulated SGK activity, in vitro kinase assay. Type of assay: biochemical. The conditions noted are these: 10 μM. The text has this:
Another kinase, termed SGK (serum/glucocorticoid regulated kinase), is also activated by PDK. Similar to Akt, SGK has a PH domain and phosphorylates GSK-3 α/β (Kobayashi, T., Deak, M., Morrice, N., and Cohen, P., 1999, Characterization of the structure and regulation of two novel isoforms of serum- and glucocorticoid-induced protein kinase, Biochem J 344 Pt 1:189-197, and Tessier, M., and Woodgett, J. R., 2006, Serum and glucocorticoid-regulated protein kinases: variations on a theme, J Cell Biochem 98:1391-1407). If Aβ inhibits PH-mediated activations of Akt independent of PIP3, it is predicted to affect this mechanism too. Indeed, in FIG. 7D, ADDL-containing Aβ preparations inhibited PDK-stimulated SGK activity (lane 7 vs. 6 and 5). […] This enhanced activity was not however, interrupted by Aβ (10 μM, lane 4 vs. 3). Lastly, another kinase that converges to phosphorylate GSK, PKA (Grimes, C. A., and Jope, R. S., 2001, The multifaceted roles of glycogen synthase kinase 3beta in cellular signaling, Prog Neurobiol 65:391-426; Li, M., Wang, X., Meintzer, M. K., Laessig, T., Birnbaum, M. J., and Heidenreich, K. A., 2000, Cyclic AMP promotes neuronal survival by phosphorylation of glycogen synthase kinase 3beta, Mol Cell Biol 20:9356-9363), was tested. […] Thus, the mechanism of Aβ inhibition of Akt activation is specific to PDK-like kinases. […]

Assay [3] concerns C2C12 myotubes. The experiment in a line: Extracellular peptide or insulin treatment of C2C12 myotubes, western blot of Akt signaling. Type of assay: cell-based, mouse. On the procedure: The prior cell-based and in vitro experiments are relevant to […] Aβ effects. To determine the specificity of Akt inhibition by […] Aβ, C2C12 myotubes were cultured, and treated with extracellular Aβ25-35, Aβ35-25, Aβ1-42 and Aβ42-1 for 24 hours. In the last 30 minutes before harvest, insulin was added (0.1 μg/ml). While p-Akt (Ser473) and p-GSK-3 α/β levels were increased by insulin treatment (FIG. 9C, lane 2 vs. 1), they were not affected by any of the Aβ treatments. […] There were also no significant changes in p-Akt (Ser473) levels (data not shown). […] PDK itself is subject to phosphorylation (e.g., at Ser 241) and several authors feel that it is constitutively phosphorylated and thus ‘primed’ (Casamayor, A., Morrice, N. A., and Alessi, D. R., 1999, Phosphorylation of Ser-241 is essential for the activity of 3-phosphoinositide-dependent protein kinase-1: identification of five sites of phosphorylation in vivo, Biochem J 342 (Pt 2):287-292). The experiments described herein indicate that p-PDK levels are constitutively high in C2C12 cells and not boosted further by insulin action (FIG. 9E, top). p-PDK levels were not modulated by extracellular (FIG. 9E lower panel) or intracellular Aβ expression (not shown).
In FIG. 9C C2C12 myotubes were bath exposed to AP25-35, reverse AP35-25, AP1-42 and reverse Aβ42-1 peptides for 24 hours before treatment with insulin (0.1 μg/ml, 15 min) Whole cell extracts were subjected to Western analysis for p-Akt (Ser473) (Akt activation) and total Akt levels (top) as well as for endogenous levels of pGSK-3a/p, indicative of Akt activity, and total GSK-3β (lower two blots). […] The increase was not affected by pre-treatment with extracellular AR.
In FIG. 9D C2C12 myotube cultures were exposed to increasing doses of A[i1-42 (0, 10 and 25 μM) for 2 hours before treatment with insulin (0, 20, 100 and 500 ng/ml) for 15 min Harvested cell extracts were used for western blot for p-Akt (Thr308).
(A western blot detects proteins with antibodies after separation by electrophoresis.)

For `CCCCCCCCCCCCCCCC(=O)OC[C@H](COP(=O)(O)OC1[C@H](O)[C@H](OP(=O)(O)O)C(OP(=O)(O)O)[C@H](OP(=O)(O)O)[C@H]1O)OC(=O)CCCCCCCCCCCCCCC` (stereo partly shown) [PIP3, phosphatidylinositol-tris-3,4,5-phosphate, dipalmitoyl], the “PDK-dependent Akt1 phosphorylation and activity” value in assay [1] (50 nM added, PP2A-treated Akt) is “extra increase”.

On to “ADDL: Aβ-derived diffusible ligands, oligomer-enriched Aβ42 preparation (24 to 48 hr at 4° C.)”, for which the “PDK-stimulated SGK activity” value in assay [2] is “inhibited SGK activation”. In addition, the “effect on PDK-stimulated Akt activity (GSK-3 substrate phosphorylation)” value in assay [1] (5 μM (or doses up to 5 μM)) was “greatest interference”. The figures for the “effect on PDK-stimulated Akt activity / Akt phosphorylation” value in assay [1] and in assay [1] (listed as ADDL preparations) were “nearly eliminates” and “near total inhibition”, respectively. For the same compound, the figures for the “relative effect of amyloid preparations (monomer, ADDL, fibril) on PDK-dependent Akt activation” value in assay [1], in assay [1] (listed as ADDL-containing Aβ preparations) and in assay [1] (listed as ADDLs) were “more potent inhibitors”, “additively more injurious” and “more toxic; also recorded: significantly prevented; also recorded: significantly greater inhibition”, respectively.

In the case of “Aβ25-35: fragment consisting of residues 25-35 of Aβ (GSNKGAIIGLM; Amyloid-beta protein 42; UniProt P05067 696-706, looked up, fragment)”, the “p-Akt (Ser473) and p-GSK-3 α/β levels after insulin” value in assay [3] (extracellular peptide 24 hours, then insulin 0.1 μg/ml) is listed as “not affected”.

In the case of “Fibrillar Aβ: fibrillar Aβ42 made in 10 mM HCl, 37° C., 24 hr”, the “relative effect of amyloid preparations (monomer, ADDL, fibril) on PDK-dependent Akt activation” value in assay [1] (listed as fibril-containing preparations) was “little toxicity; also recorded: least active”; in assay [1] (listed as fibrillated preparations of Aβ), “little effect”.

As to “Insulin: insulin used to stimulate the Akt pathway”, the “levels of p-Akt (Ser473) and Akt activity (p-GSK-3 α/β)” value in assay [3] (0.1 μg/ml, 15 min) is listed as “significantly increased”.

With “PTEN: Recombinant Phosphatase and Tensin Homolog, lipid phosphatase (R & D Systems)”, the “PDK stimulation of Akt activity after preincubation of the kinase beads” value in assay [1] (preincubation 10.6 μg/ml, 15 min at 37° C., then washing) is reported as “eliminated any stimulation of Akt activity”.
